# Literature values as cited in patent EP1156371A2, “Replenishing method of planographic printing plate developer” (FUJI PHOTO FILM CO., LTD., priority 2000, dated 2001).
# Settings: dissociation constant of weak acid, aqueous solution
row,pKa,Molecule
1,11.9,CC(=NO)C(C)=NO [dimethyl glyoxime]
2,12.8,NC(=S)c1ccccc1 [thiobenzamide]
3,11.37,NC(=N\O)/C(N)=N/O [ethanediamide dioxime]
4,12.10,ON=Cc1ccccc1O [2-hydroxybenzaldehyde oxime]
5,11.56,Oc1ccc(O)cc1 [hydroquinone]
6,11.35,CC(=NO)c1ccccc1 [acetophenone oxime]
7,11.82,"Oc1ccc(O)c(O)c1 [1,2,4-trihydroxybenzene]"
8,12.05,O=Cc1ccncc1 [pyridine-4-aldehyde]
9,11.7,O=C(O)c1cc(S(=O)(=O)O)ccc1O [sulfosalicylic acid]
10,12.56,Nc1ncnc2c1ncn2[C@@H]1O[C@H](CO)[C@@H](O)[C@H]1O [adenosine]
11,12.55,picoline thioamide
12,12.84,O=C(O)c1cc2ccccc2cc1O [3-hydroxy-2-naphthoic acid]
13,11.34,Oc1cccc(O)c1O [pyrogallol]
14,12.5,OC[C@H]1O[C@@H](n2cnc3c(O)ncnc32)[C@H](O)[C@@H]1O [inosine]
15,12.68,O=Cc1ccccn1 [pyridine-2-aldehyde]
16,12.6,Oc1ccccc1O [catechol]
17,11.27,Oc1cccc(O)c1 [resorcinol]
18,12.86,c1ccc2[nH]cnc2c1 [benzimidazole]

row,Molecule,pKa
1,"O=C(O)c1ccc(O)c(O)c1 [3,4-duhydroxybenzoic acid]",11.94
2,Cc1cccc(O)c1 [m-cresol],10.09
3,CC(O)(P(=O)(O)O)P(=O)(O)O [1-hydroxy 1-ethylidene diphosphonate],11.52
4,"OCC(F)(F)C(F)F [2,2,3,3-tetrafluoropropanol-1]",12.74
5,"CC(P(=O)(O)O)P(=O)(O)O [1,1-ethylidene diphosphonic acid]",11.54
6,CCC(C)=NO [2-butanone oxime],12.45
7,CC(C)(P(=O)(O)O)P(=O)(O)O [isopropylidene diphopshonic acid],12.10
8,Cc1ccccc1O [o-cresol],10.33
9,CC(C)=NO [acetoxime],12.42
10,O=C1CC(=O)NC(=O)N1 [barbituric acid],12.5
